Test results as given in PMC9081833, “Discovery of acylphloroglucinol-based meroterpenoid enantiomers as KSHV inhibitors from Hypericum japonicum” (RSC Advances, 2018).
Like-named read-outs stand apart in the source and are kept apart here.

What was measured:
[1] = tested on: Human iSLK.219 cells; conditions: 50% cytotoxic concentration, 48 h, with Dox and NaB
[2] = tested on: KSHV lytic replication; conditions: for Selective index (CC50/IC50): human; for IC50: supernatant of iSLK.219 cells treated 48 h used to infect Vero cells 48 h, GFP readout
[3] = tested on: KSHV lytic replication; experiment: Field-based 3D QSAR model of anti-KSHV activity; set-up: species or system Kaposi's sarcoma associated herpesvirus (KSHV); unit not given here; conditions: log IC50 of the anti-KSHV IC50
Source text: Qualitative analysis was followed by quantitative SAR (QSAR) modelling utilizing the Field-Based QSAR Panel implemented in Schrödinger Suite[14] to set up CoMFA/CoMSIA models from these enantiomers. These enantiomers first superimposed using the flexible shape-based alignment method (Fig. 6). […] Experimental activities of additional analogues would likely provide a better model. Moreover, correlation between the observed activities and the predicted activities was plotted in Fig. 7.
QSAR studies were conducted with Schrödinger Suite 2017-1.
A data set (Table 3) was randomly assigned into training and test sets with a ratio of approximately 4/1, and their activities (IC50) were converted to the logarithm (log IC50). The minimized conformations of these enantiomers were generated utilizing LigPrep and aligned according to the flexible shape-based alignment method. The force field was used and the maximum PLS factors were set as 1/5 of the total number of the training set in order to avoid over-fitting. The parameters that were not mentioned were left as defaults.

[4] = in vitro; conditions: human, CC50, 50% cytotoxic concentration, iSLK.219 cells, 48 h, with Dox and NaB
[5] = tested on: KSHV lytic replication; experiment: microbe, parasite or virus in culture; conditions: Human gammaherpesvirus 8, Vero, 48 h, supernatant of iSLK.219 cells treated 48 h used to infect Vero cells 48 h, GFP readout
[6] = tested on: KSHV lytic replication; experiment: in vitro; conditions: human, Selective index (CC50/IC50)

SMILES | CC50 [1] | Selective index (CC50/IC50) [2] | IC50 [2] | Observed activity [3] | CC50 [4] | IC50 [5] | selectivity ratio [6]
CC(C)=CCCC(C)(O)C1Cc2c(O)cc(O)c(C(=O)c3ccccc3)c2O1 (single isomer, unassigned; (-)) [Compound 4b, (−)-japonicol H] | > 200 µM | >6.79 | 29.5 µM | 1.469 |  |  | 
CC(C)=CCCC1(C)Oc2c(c(O)cc(O)c2C(=O)C(C)C)CC1O (single isomer, unassigned; (-)) [Compound 2b, (−)-japonicol F] | 150 µM | 5.50 | 27.3 µM | 1.436 |  |  | 
CC(C)C(=O)c1c(O)cc(O)c2c1OC1(C)CCC(C(C)(C)O)C2C1O (stereo not shown) [Compound 5a] |  |  |  | 2.307 | > 500 µM | 203 µM | > 2.46
CC(C)C(=O)c1c(O)cc(O)c2c1OC1(C)CCC(C(C)(C)O)OC1C2 (stereo not shown) [Compound 6b] | 174 µM |  |  | 1.600 |  |  | 
CC(C)C(=O)c1c(O)cc(O)c(CC2C(C(C)(C)O)CCC2(C)O)c1O (stereo not shown) [Compound 8a] |  | >7.50 | 40 µM | 1.602 | > 300 µM |  | 
CC(C)=CCCC(C)(O)C1Cc2c(O)cc(O)c(C(=O)C(C)C)c2O1 (single isomer, unassigned; (-)) [Compound 3b, (−)-japonicol G] | 50.1 µM | 7.48 | 6.7 µM | 0.826 |  |  | 
CC(C)C(=O)c1c(O)cc(O)c2c1OC1(C)CCC(C(C)(C)O)OC1C2 (stereo not shown) [Compound 6a] |  |  |  | 1.247 | 141 µM |  | 
CC(C)C(=O)c1c(O)cc(O)c(CC2C(C(C)(C)O)CCC2(C)O)c1O (stereo not shown) [Compound 8b] | > 300 µM | >1.89 | 158 µM | 2.200 |  |  | 
CC(C)C(=O)c1c(O)cc(O)c2c1OC(C)(C)C1CCC(C)(O)C1C2 (stereo not shown) [Compound 7a] |  |  | 17.7 µM | 0.942 | 221 µM |  | 
Nc1ccn(C[C@@H](CO)OCP(=O)(O)O)c(=O)n1 [Cidofovir, reference compound] |  |  |  |  | > 1 µM | 0.0081 µM | > 123
CC(C)=CCCC1(C)Oc2c(c(O)cc(O)c2C(=O)C(C)C)CC1O (single isomer, unassigned; (+)) [Compound 2a, (+)-japonicol F] |  |  |  | 1.447 | 126 µM | 28 µM | 4.5
CC(C)=CCCC(C)(O)C1Cc2c(O)cc(O)c(C(=O)C(C)C)c2O1 (single isomer, unassigned; (+)) [Compound 3a, (+)-japonicol G] |  | 3.66 | 21.7 µM | 1.337 | 79.5 µM |  | 
C=C(C)C1CCC2(C)Oc3c(c(O)cc(O)c3C(=O)C(C)C)CC12 (single isomer, unassigned; (-)) [Compound 1b, (−)-japonicol E] | 190 µM | 7.78 | 24.5 µM | 1.388 |  |  | 
C=C(C)C1CCC2(C)Oc3c(c(O)cc(O)c3C(=O)C(C)C)CC12 (single isomer, unassigned; (+)) [Compound 1a, (+)-japonicol E] |  | 23.49 | 8.3 µM | 0.919 | 195 µM |  | 
CC(C)C(=O)c1c(O)cc(O)c2c1OC1(C)CCC(C(C)(C)O)C2C1O (stereo not shown) [Compound 5b] | > 500 µM | >3.55 | 141 µM | 2.149 |  |  | 
CC(C)=CCCC(C)(O)C1Cc2c(O)cc(O)c(C(=O)c3ccccc3)c2O1 (single isomer, unassigned; (+)) [Compound 4a, (+)-japonicol H] |  | 25.70 | 4.9 µM | 0.690 | 126 µM |  | 
CC(C)C(=O)c1c(O)cc(O)c2c1OC(C)(C)C1CCC(C)(O)C1C2 (stereo not shown) [Compound 7b] | > 300 µM |  | 39.8 µM | 1.464 |  |  | 
